This note sets out measurements from PubChem BioAssay AID212 (DTP/NCI, 2004).

“And” between values parts separate entries of the source, which are not always exact repeats. Equal values may be shown once. Results filed as inconclusive are left out.

The assay concerns BDF1 mice, colon carcinoma 38 sc, T/C %. Kind of assay: NCI In Vivo Anticancer Drug Screen. Data for tumor model Colon Carcinoma 38 (subcutaneous) in B6D2F1 (BDF1) mice. The settings on record: endpoint: median tumor weight (est.), higher = larger tumour. The protocol: The antitumor activity of compounds was measured in mice bearing transplantable tumors. Survival or tumor size were measured and the results are expressed as the measurement made in the treated group (T) divided by the measurement made in the vehicle treated control group (C). The tumor model used in this assay is Colon Carcinoma 38 (subcutaneous) in B6D2F1 (BDF1) mice

[1] abbreviates: dose: 25.0 mg/kg/injection, schedule: Q07DX002 (ip), vehicle: saline.
The mark [2] stands for this setting: dose: 50.0 mg/kg/injection, schedule: Q07DX002 (ip), vehicle: saline.
Where [3] appears, read: dose: 50.0 mg/kg/injection, schedule: Q07DX002 (ip), vehicle: Klucel (hydroxypropylcellulose) (HPC).
Where [4] appears, read: dose: 100.0 mg/kg/injection, schedule: Q07DX002 (ip), vehicle: Klucel (hydroxypropylcellulose) (HPC).

As for `CC1=CC(C)(C)Nc2ccc(CSc3ccccc3)cc21`, the T/C reads like this: (dose: 6.25 mg/kg/injection, schedule: Q07DX002 (ip), vehicle: DMSO) 88 % of control; (dose: 12.5 mg/kg/injection, schedule: Q07DX002 (ip), vehicle: DMSO) 86 % of control; (dose: 12.5 mg/kg/injection, schedule: Q07DX002 (ip), vehicle: saline + Tween-80 + alcohol) 78 % of control; (dose: 25.0 mg/kg/injection, schedule: Q07DX002 (ip), vehicle: DMSO) 76 % of control; (dose: 25.0 mg/kg/injection, schedule: Q07DX002 (ip), vehicle: saline + Tween-80 + alcohol) 86 % of control; (dose: 50.0 mg/kg/injection, schedule: Q07DX002 (ip), vehicle: DMSO) 67 % of control. Also, the T/C is 107 % of control (dose: 50.0 mg/kg/injection, schedule: Q07DX002 (ip), vehicle: saline + Tween-80 + alcohol); 59 % of control (dose: 100.0 mg/kg/injection, schedule: Q07DX002 (ip), vehicle: DMSO); 102 % of control (dose: 100.0 mg/kg/injection, schedule: Q07DX002 (ip), vehicle: saline + Tween-80 + alcohol).

As for `Nc1ncnc2c1ncn2C1OC(CO)C(O)C1O` (centres undefined), the T/C (dose: 12.5 mg/kg/injection, schedule: Q07DX002 (ip), vehicle: saline) is 103 % of control; the T/C under setting [1] was 115 % of control; the T/C (dose: 25.0 mg/kg/injection, schedule: Q07DX003 (ip), vehicle: saline) was 233 % of control; the T/C under setting [2] is 85 % of control; the T/C (dose: 50.0 mg/kg/injection, schedule: Q07DX003 (ip), vehicle: saline) was 238 % of control; the T/C (dose: 75.0 mg/kg/injection, schedule: Q07DX002 (ip), vehicle: saline) was 80 % of control. The T/C by setting is: (dose: 100.0 mg/kg/injection, schedule: Q07DX002 (ip), vehicle: saline) 110 % of control; (dose: 150.0 mg/kg/injection, schedule: Q07DX002 (ip), vehicle: saline) 97 % of control; (dose: 300.0 mg/kg/injection, schedule: Q07DX002 (ip), vehicle: saline) 105 % of control; (dose: 600.0 mg/kg/injection, schedule: Q07DX002 (ip), vehicle: saline) 116 % of control.

Turning to `CO[C@H](C(=O)[C@@H](O)[C@@H](C)O)[C@@H]1Cc2cc3cc(OC4CC(OC5CC(O)C(O)C(C)O5)C(O)C(C)O4)c(C)c(O)c3c(O)c2C(=O)[C@H]1OC1CC(OC2CC(OC3CC(C)(O)C(O)C(C)O3)C(O)C(C)O2)C(O)C(C)O1` (some centres undefined), the T/C (dose: 0.06 mg/kg/injection, schedule: Q07DX002 (ip), vehicle: saline) is 114 % of control; the T/C (dose: 0.12 mg/kg/injection, schedule: Q07DX002 (ip), vehicle: saline) was 99 % of control; the T/C (dose: 0.25 mg/kg/injection, schedule: Q07DX002 (ip), vehicle: saline) is 161 % of control; the T/C (dose: 0.25 mg/kg/injection, schedule: Q07DX003 (ip), vehicle: saline) was 75 % of control; the T/C (dose: 0.5 mg/kg/injection, schedule: Q07DX003 (ip), vehicle: saline) was 65 % of control; the T/C (dose: 1.0 mg/kg/injection, schedule: Q07DX003 (ip), vehicle: saline) was 49 % of control. In addition, the T/C (dose: 2.0 mg/kg/injection, schedule: Q07DX003 (ip), vehicle: saline) is 37 % of control.

Consider `CCC1CCCCN1C(=S)N/N=C(\C)c1ccccn1` (centres undefined), for which, under “dose: 25.0 mg/kg/injection, schedule: Q07DX002 (ip), vehicle: saline with Tween-80”, the T/C was 121 % of control.

For the compound `C(CC1CO1)C1CO1` (centres undefined), the T/C by setting is: (dose: 5.0 mg/kg/injection, schedule: Q07DX002 (ip), vehicle: Klucel (hydroxypropylcellulose) (HPC)) 172 % of control and 185 % of control; (dose: 10.0 mg/kg/injection, schedule: Q07DX002 (ip), vehicle: Klucel (hydroxypropylcellulose) (HPC)) 106 % of control; (dose: 40.0 mg/kg/injection, schedule: Q07DX002 (ip), vehicle: Klucel (hydroxypropylcellulose) (HPC)) 245 % of control; (dose: 80.0 mg/kg/injection, schedule: Q07DX002 (ip), vehicle: Klucel (hydroxypropylcellulose) (HPC)) 115 % of control; (dose: 160.0 mg/kg/injection, schedule: Q07DX002 (ip), vehicle: Klucel (hydroxypropylcellulose) (HPC)) 81 % of control.

For the compound `C=C1C(=O)OC2/C=C(\C)CC(O)/C=C(/CO)CC(OC(=O)/C(C)=C/C)C12` (centres undefined), the T/C is 223 % of control (dose: 7.5 mg/kg/injection, schedule: Q07DX002 (ip), vehicle: saline + alcohol); 168 % of control (dose: 30.0 mg/kg/injection, schedule: Q07DX002 (ip), vehicle: saline + alcohol); 441 % of control (dose: 60.0 mg/kg/injection, schedule: Q07DX002 (ip), vehicle: saline + alcohol).

As to `CCCCCCCCCCS(=O)CC(CO)NC(=O)/C=C/c1c(C)[nH]c(=O)[nH]c1=O` (centres undefined), the T/C reads like this: (dose: 1.5 mg/kg/injection, schedule: Q07DX002 (ip), vehicle: distilled water + Tween-80) 76 % of control and 96 % of control; (dose: 3.0 mg/kg/injection, schedule: Q07DX002 (ip), vehicle: distilled water + Tween-80) 109 % of control and 96 % of control; (dose: 12.0 mg/kg/injection, schedule: Q07DX002 (ip), vehicle: distilled water + Tween-80) 112 % of control and 115 % of control; (dose: 48.0 mg/kg/injection, schedule: Q07DX002 (ip), vehicle: distilled water + Tween-80) 80 % of control.

For `CCCC(=O)O`, the T/C is 121 % of control under setting [1]; 105 % of control under setting [2]; 99 % of control (dose: 200.0 mg/kg/injection, schedule: Q07DX002 (ip), vehicle: saline).

Turning to `Cc1cc(O)c2c(c1O)C(=O)C13C(=C2O)C(=O)C2C(O)C1C1C(O)C3C(=O)C3=C(O)c4c(O)cc(C)c(O)c4C(=O)C321` (centres undefined), the T/C (dose: 6.25 mg/kg/injection, schedule: Q07DX002 (ip), vehicle: saline with Tween-80) is 68 % of control.

`CC12C(=O)C=CCC1=CCC1C2CCC2(O)C(=O)OC3(C)C4CC5(C)C(COC16OC23C5C6=O)C(=O)O4` (centres undefined): the T/C reads like this: under setting [3], 112 % of control; under setting [4], 86 % of control; (dose: 400.0 mg/kg/injection, schedule: Q07DX002 (ip), vehicle: Klucel (hydroxypropylcellulose) (HPC)) 111 % of control.

As to `CN(C)CCN(C)CC(C)(C)C(=O)/C=C/c1ccccc1`, the T/C runs as follows: (dose: 31.25 mg/kg/injection, schedule: Q07DX002 (ip), vehicle: saline) 119 % of control; (dose: 62.5 mg/kg/injection, schedule: Q07DX002 (ip), vehicle: saline) 11 % of control; (dose: 125.0 mg/kg/injection, schedule: Q07DX002 (ip), vehicle: saline) 52 % of control.

As for `CC1=CC2OC3C(OC(=O)c4ccccc4)C(OC(=O)c4ccccc4)C(C)(C2(COC(=O)c2ccccc2)CC1)C31CO1` (centres undefined), the T/C is 166 % of control (dose: 3.0 mg/kg/injection, schedule: Q07DX002 (ip), vehicle: saline with Tween-80); 152 % of control (dose: 6.0 mg/kg/injection, schedule: Q07DX003 (ip), vehicle: saline with Tween-80); 184 % of control (dose: 12.0 mg/kg/injection, schedule: Q07DX003 (ip), vehicle: saline with Tween-80).

Consider `Oc1c(Cl)cc(Cl)cc1C=NCCSc1ccc(Cl)cc1`, for which the T/C under setting [3] is 85 % of control; the T/C under setting [4] is 78 % of control; the T/C (dose: 200.0 mg/kg/injection, schedule: Q07DX002 (ip), vehicle: Klucel (hydroxypropylcellulose) (HPC)) is 162 % of control.

Turning to `C[C@@]12C(=O)OC(=O)[C@]1(C)[C@H]1CC[C@@H]2O1`, the T/C was 88 % of control (dose: 0.12 mg/kg/injection, schedule: Q07DX002 (ip), vehicle: Klucel (hydroxypropylcellulose) (HPC)); 65 % of control (dose: 0.25 mg/kg/injection, schedule: Q07DX002 (ip), vehicle: Klucel (hydroxypropylcellulose) (HPC)); 69 % of control (dose: 0.5 mg/kg/injection, schedule: Q07DX002 (ip), vehicle: Klucel (hydroxypropylcellulose) (HPC)); 76 % of control (dose: 1.0 mg/kg/injection, schedule: Q07DX002 (ip), vehicle: Klucel (hydroxypropylcellulose) (HPC)); 86 % of control (dose: 2.0 mg/kg/injection, schedule: Q07DX002 (ip), vehicle: Klucel (hydroxypropylcellulose) (HPC)).

For `C=C1C(=O)O[C@H]2/C=C(/C)C3=CC(=O)[C@@](C)(C[C@@H](OC(=O)/C(C)=C\C)C12)O3` (some centres undefined), the T/C reads like this: (dose: 3.12 mg/kg/injection, schedule: Q07DX002 (ip), vehicle: Klucel (hydroxypropylcellulose) (HPC)) 63 % of control; (dose: 6.25 mg/kg/injection, schedule: Q07DX002 (ip), vehicle: Klucel (hydroxypropylcellulose) (HPC)) 95 % of control; (dose: 12.5 mg/kg/injection, schedule: Q07DX002 (ip), vehicle: Klucel (hydroxypropylcellulose) (HPC)) 58 % of control; (dose: 25.0 mg/kg/injection, schedule: Q07DX002 (ip), vehicle: Klucel (hydroxypropylcellulose) (HPC)) 79 % of control.
